# PMC12254070, “Antimicrobial Peptides Design Using Deep Learning and Rational Modifications: Activity in Bacteria, Candida albicans, and Cancer Cells” (Current Microbiology, 2025)
# Read-outs that look alike come from different tables or passages of the source. Ends that are not written are not given here.
# Assays:
# C. albicans ATCC 10231 = type: cell-based, Candida albicans
# Procedure: (§1) The antimicrobial activity of the peptides was evaluated with S. aureus ATCC 25923, P. aeruginosa ATCC 27853, Escherichia coli ATCC 25922, Klebsiella quasipneumoniae ATCC 700603, and the yeast C. albicans ATCC 10231. The minimum inhibitory concentration (MIC) was determined following the protocol described by Wiegand et al.. Briefly, bacteria were grown overnight in Mueller–Hinton (MH) medium at 37 °C and 90 rpm, while C. albicans was grown at 30 °C in MH supplemented with 30% YPD (yeast extract, peptone, dextrose). The concentration of bacteria and C. albicans was adjusted to 10^6 CFU/mL. […] Microorganism growth was measured hourly at 600 nm for 24 h, with a 10-s shaking cycle, on a Multiskan Go microplate reader (Thermo Scientific). The experiments with bacteria were incubated at 37 °C, whereas those with C. albicans were incubated at 30 °C. Each peptide was evaluated by duplicate on 2 different days. The MIC was estimated as the minimum peptide concentration at which the microorganism had no growth. […] In all assays, untreated culture medium without peptides was included as a negative control to account for basal microbial growth. All assays were performed in two independent experiments, each conducted with two technical replicates (n = 4 per condition).
# human red blood cells [1] = settings: red cells of human, 3 h
# [2] = system: Escherichia coli ATCC 25922; type: cell-based
# Procedure: as §1
# [3] = system: Klebsiella quasipneumoniae ATCC 700603; type: cell-based
# Procedure: as §1
# P. aeruginosa ATCC 27853 = type: cell-based, Pseudomonas aeruginosa
# Procedure: as §1
# S. aureus ATCC 25923 = type: cell-based, Staphylococcus aureus
# Procedure: as §1
# [4] = system: human lung adenocarcinoma (A549) cells; type: cell-based
# Procedure: (§2) The methodology proposed by Zhang et al. […] After 24 h of incubation, the wells were washed twice with PBS, and 10 μL of MTT solution was added to each well at a final concentration of 0.5 mg/mL, and the cell cultures were incubated for 4 h at 37 °C. The solution was removed from each well, and the formazan crystals were dissolved with 100 μL of Sodium Dodecyl Sulfate (0.01 M). After 16 h, absorbance was measured with a MultiSkan Go microplate reader at 570 nm. The untreated wells were used as a negative control, while wells treated with DMSO were used as a positive control for cytotoxicity. The percent viability was determined using the following equation. %viability=[…]-×100% where ABSM is the average absorbance with the treatment and ABSC is the absorbance obtained in the controls (positive and negative).
# [5] = system: human breast adenocarcinoma (MCF-7) cells; type: cell-based
# Procedure: as §2
# human red blood cells [6] = assay: Hemolysis assay; settings: human erythrocytes 1:10 in 0.9% PBS, 50 µM peptide, 37 °C, 3 h, OD 545 nm, 0.1% Triton X-100 = positive control, three replicate wells
# [7] = Mueller–Hinton, 10^6 CFU/mL, 37 °C, 24 h, OD 600 nm, minimum concentration with no growth, n = 4
# [8] = minimum bactericidal concentration, value in brackets
Sequence,"IC50 (C. albicans ATCC 10231; ATCC 10231, 24 h) [µM]","MFC C.a (C. albicans ATCC 10231; ATCC 10231, 24 h)",MHC (minimum hemolytic concentration) (human red blood cells [1]) [µM],"IC50 ([2]; ATCC 25922, 24 h) [µM]","MBC E.c ([2]; ATCC 25922, 24 h) [µM]","IC50 ([3]; ATCC 700603, 24 h) [µM]","MBC K.q ([3]; ATCC 700603, 24 h)","MIC K.q ([3]; ATCC 700603, 24 h)","IC50 (P. aeruginosa ATCC 27853; ATCC 27853, 24 h) [µM]","MBC P.a (P. aeruginosa ATCC 27853; ATCC 27853, 24 h) [µM]","MIC P.a (P. aeruginosa ATCC 27853; ATCC 27853, 24 h) [µM]","IC50 (S. aureus ATCC 25923; ATCC 25923, 24 h) [µM]","MBC S.a (S. aureus ATCC 25923; ATCC 25923, 24 h)",% Hemolysis at 50 µM (human red blood cells [1]) [%],"MIC E.c ([2]; ATCC 25922, 24 h) [µM]","MIC S.a (S. aureus ATCC 25923; ATCC 25923, 24 h)",IC50 ([4]; 24 h) [µM],IC50 ([5]; 24 h) [µM],other results
FKKLLKFLKWLF [VeP1],31.7,> 113.1 µM,4.25,5.8,14.1,5.9,28.3 µM,28.3 µM,31.7,56.6,56.6,2.1,3.5 µM,,,,,,
AIVKKIGKIWKNFIK [VeP2M],5.9,31.3 µM,68.64,1.6,3.9,9.2,62.6 µM,31.3 µM,5.9,15.6,7.8,7.9,31.3 µM,7.1,3.9,15.6 µM,34.9,21.9,
LKRLAKLLKKWIKA [OrP4M],9.4,28.2 µM,59.91,2.2,3.5,3.3,14.1 µM,7.1 µM,9.4,3.5,3.5,3.4,14.1 µM,,3.5,7.1 µM,,< 6.25,
AGLKKLAKKLGKVVL [OrP3],9.6,27.8 µM,,1.6,3.5,6,27.8 µM,13.9 µM,9.6,13.9,13.9,10.1,27.8 µM,0.0,3.5,27.8 µM,33.1,23.2,
IKPVVKGIKGVKNFFK [VeP2],23.7,> 102.9 µM,,22.8,103,30.7,> 103 µM,103 µM,21.9,102.9,51.5,53.2,> 102.9 µM,3.0,103,51.5 µM,69.6,34.2,
FKLFCVAKRLPKKVL [OrP9],44.1,> 119.2 (> 119.2) µM,,4.9,7.5,93,> 119.2 (> 119.2) µM,> 119.2 (> 119.2) µM,44.1,29.8,14.9,,> 119.2 (> 119.2) µM,,7.5,> 119.2 (> 119.2) µM,,> 100,
IGKVWKVAKKLIKI [OrP9M],4.9,,,3.2,7.8,3.8,15.6 µM,15.6 µM,4.9,1.9,,4.5,31.1 µM,,7.8,15.6 µM,25.1,< 6.25,
IKKWGKVLKKLI [VeP1M],,,,,,,,,,,,,,,,,,,"MIC C.a (C. albicans ATCC 10231; MH + 30% YPD, 10^6 CFU/mL, 30 °C, 24 h, OD 600 nm, minimum concentration with no growth, n = 4): 15.2 µM; IC50 (C. albicans ATCC 10231; half inhibitory concentration against the microorganism, Table S4, dose-response curves, read-out: IC50 C.a.): 10 µM; MFC C.a (C. albicans ATCC 10231; minimum fungicide concentration, value in brackets): 30.3 µM; % Hemolysis at 50 µM (human red blood cells [6]): 0.0%; MIC E.c [2, 7]: 7.6 µM; IC50 ([2]; half inhibitory concentration against the microorganism, Table S4, dose-response curves, read-out: IC50 E.c.): 3.7 µM; MBC E.c [2, 8]: 7.6 µM; MIC K.q [3, 7]: 30.4 µM; IC50 ([3]; half inhibitory concentration against the microorganism, Table S4, dose-response curves, read-out: IC50 K.q.): 6.8 µM; MBC K.q [3, 8]: 30.4 µM; MIC P.a (P. aeruginosa ATCC 27853; [7]): 3.8 µM; IC50 (P. aeruginosa ATCC 27853; half inhibitory concentration against the microorganism, Table S4, dose-response curves, read-out: IC50 P.a.): 10 µM; MBC P.a (P. aeruginosa ATCC 27853; [8]): 3.8 µM; MIC S.a (S. aureus ATCC 25923; [7]): 15.2 µM; IC50 (S. aureus ATCC 25923; half inhibitory concentration against the microorganism, Table S4, dose-response curves, read-out: IC50 S.a.): 8.3 µM; MBC S.a (S. aureus ATCC 25923; [8]): 15.2 µM; IC50 ([4]; MTT, 24 h incubation with peptide, triplicate, non-linear regression, read-out: IC50 A549): 35 µM; IC50 ([5]; MTT, 24 h incubation with peptide, triplicate, non-linear regression, read-out: IC50 MCF-7): 13.6 µM"
LAKRWLKLLGKLAK [OrP1M],10.1,31.6 µM,,1.5,1.9,4.5,15.8 µM,15.8 µM,10.1,3.9,3.9,2.3,3.9 µM,,,3.9 µM,21.1,< 6.25,
AKLLGKLLRKKIGVL [OrP4],23.3,125.3 µM,28.98,14.8,62.6,29,> 125.2 (> 125.2) µM,,23.3,31.3,15.7,,> 125.2 (> 125.2) µM,,31.3,> 125.2 (> 125.2) µM,,> 100,
AGLARKWLKLPIGVLAR [OrP1],14.8,49.7 µM,,5.8,12.4,22.4,> 99.3 µM,49.7 µM,14.8,99.3,49.7,24.2,> 99.3 (> 99.3) µM,1.2,12.4,> 99.3 (> 99.3) µM,21.7,9.1,
